Earlier results in patent US20250375365A1, “MOUTH RESCUE RINSE AND METHODS OF REGULATING BLOOD PRESSURE” (University of Florida Research Foundation, Inc., priority 2024, published 2025).

Legend:
[1] = CHX rinses, healthy subjects; some studies reported
[2] = test system: oral microbiome

## N=C(NCCCCCCNC(=N)NC(=N)Nc1ccc(Cl)cc1)NC(=N)Nc1ccc(Cl)cc1.O=C(O)[C@H](O)[C@@H](O)[C@H](O)[C@H](O)CO.O=C(O)[C@H](O)[C@@H](O)[C@H](O)[C@H](O)CO [CHX, chlorhexidine gluconate]
[1]
  blood pressure values versus controls: higher blood pressure values
[2]; one-week CHX course
  reduction of oral microbiome associated with oral nitrate production: significantly impact the reduction of oral microbiome
[2]; oral antiseptic mouthwash
  bacterial species associated with oral inflammation: effectively reduced bacterial species
